Results on 6 molecules are retold here after patent publication US20040058357A1 (priority 2003, published 2004).

In test [1] the test system is AChE. The note with it: rat, in vivo.
The test system of test [2] is AChE. Particulars: rat, in vivo. This is another data set of the same source.
The subject of test [3] is AChE-S mRNA. The note with it: rat, in vivo.
Test [4] relates to PC12 cells. Format: cell-based.
The subject of test [5] is AChE. It is filed as cell-based.
Test [6] relates to hippocampal slices. Format: cell-based, mice.

As to `CN1[C@@H]2C[C@@H](OC(=O)[C@H](CO)c3ccccc3)C[C@H]1[C@@H]1O[C@@H]12` [scopolamine], the “DFP-induced increase of G1:G4 ratio under co-injection” value in test [1] is reported as “prevented”. The “Effect on the DFP-induced decrease in AChE activities” value in test [2] is “no significant effect”. In test [3], the “AChE-S elevation by vehicle injection-induced stress under muscarinic blocker” value is 39.6±3.3 AFU; the “AChE-S mRNA labeling, change in words” value is given as “conspicuous increases”; the “DFP-induced AChE-S expression” value is recorded as 35.1±10 AFU; the “Effect on AChE-S or -R levels after 24 hours” value was “did not show any effect”.
`C[C@]12C[C@H](O)[C@H]3[C@@H](CCC4=CC(=O)CC[C@@]43C)[C@@H]1CC[C@@H]2C(=O)CO` [corticosterone]: in test [4], the “Increase in labeling intensities of both AChE splice variants versus vehicle-treated cells” value is given as 30-50%. Besides, the “Increase in acetylthiocholine hydrolytic capacity of AChE” value in test [5] stood at 25±14%.
With `NC(CCCP(=O)(O)O)C(=O)O` (stereo not drawn) [APV, aminophosphonopentanoic acid], in test [6], the “Effect on the evoked pfp” value is “blocked”.
Take `CN1[C@@H]2CC[C@H]1C[C@@H](OC(=O)C(CO)c1ccccc1)C2` (stereo partly drawn) [atropine]: in test [6], the “Block of the evoked response” value is given as “over 90%” and the “Reversal of the physostigmine-induced response” value is on record as 70%.
`CN1CCN(CC(=O)N2c3ccccc3C(=O)Nc3cccnc32)CC1` [pirenzepine]: in test [1], the “DFP-induced increase of G1:G4 ratio under co-injection” value is “prevented”. Also, in test [2], the “Cortical DFP-induced decrease in AChE activity under pirenzepine pre-treatment” value was 44 % of control and the “Hippocampal regaining of AChE activity after DFP under pirenzepine pre-treatment” value was 63 % of control. Also, in test [3], the “AChE-S elevation by vehicle injection-induced stress under muscarinic blocker” value was 39.1±5.2 AFU; the “AChE-S mRNA labeling, change in words” value was “somewhat lower increase”; the “DFP-induced AChE-S expression” value stood at 30.4±4.9 AFU; the “Effect on AChE-S or -R levels after 24 hours” value is “did not show any effect”.
As for `CNC(=O)Oc1ccc2c(c1)[C@]1(C)CCN(C)[C@@H]1N2C` [physostigmine], in test [6], the “Increase in amplitude of evoked population spikes, mean” value was found to be 42±15%; the “Increase in amplitude of evoked population spikes, range” value is 20-80%; the “Increase over baseline in population spike amplitudes relative to non-stressed animals” value was 12 fold.
